Measured values: PubChem BioAssay AID463130 (The Scripps Research Institute Molecular Screening Center, 2010)

Target: Protein phosphatase methylesterase 1 (Homo sapiens) (UniProt Q9Y570)
Experiment: PME-1 inhibitors by competitive ABPP, late-stage follow-up, gel-based ABPP, IC50, set 1 (AID 463130)
Details: fluorophosphonate probe labeling

Sequence of Protein phosphatase methylesterase 1 (Homo sapiens) (Q9Y570 whole entry, looked up): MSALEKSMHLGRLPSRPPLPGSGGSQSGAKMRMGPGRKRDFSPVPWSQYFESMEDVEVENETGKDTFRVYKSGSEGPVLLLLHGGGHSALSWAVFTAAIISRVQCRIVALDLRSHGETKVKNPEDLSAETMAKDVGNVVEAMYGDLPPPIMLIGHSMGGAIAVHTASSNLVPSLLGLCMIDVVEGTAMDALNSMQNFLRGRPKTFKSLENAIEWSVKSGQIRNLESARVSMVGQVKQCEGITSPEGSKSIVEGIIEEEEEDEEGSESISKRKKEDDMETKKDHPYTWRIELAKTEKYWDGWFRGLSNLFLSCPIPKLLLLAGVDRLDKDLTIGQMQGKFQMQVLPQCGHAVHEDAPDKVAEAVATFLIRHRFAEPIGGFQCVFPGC

IC50: 0.195 µM
Structure (SMILES): COC(=O)N1C(=O)[C@](c2ccccc2)(C(C)C)N1C(=O)OC
